The record followed here is patent US20220396567A1, “SUBSTITUTED PYRIMIDINE FOR THE TREATMENT AND PROPHYLAXIS OF HEPATITIS B VIRUS INFECTION” (Hoffmann-La Roche Inc., priority 2019, published 2022).

Molecules are shown by their SMILES.

This experiment relates to HBV. The experiment can be described thus: Cryopreserved primary human hepatocytes (PHH) HBV infection assay, extracellular HBsAg by CLIA. The conditions noted are these: Hepatitis B virus, Hepatocyte, 216 h; HBV-infected cryopreserved PHH; extracellular HBsAg at 9 days post-compound treatment; 4 parameter logistic curve fit. The format is cell-based. As to the method:
This assay is used to confirm the anti-HBV effect of the compounds in HBV PHH infection assay. Cryopreserved PHH (BioreclamationIVT, Lot YJM) was thawed at 37° C. and gently transferred into pre-warmed InVitroGRO HT medium (BioreclamationIVT, Cat. S03317). The mixture was centrifuged at 70 relative centrifugal force (RCF) for 3 min at RT, and the supernatant was discarded. Pre-warmed InVitroGRO CP medium (BioreclamationIVT, Cat #S03316) was added to the cell pellet to gently re-suspend cells. The cells were seeded at the density of 5.8×10^4 cells per well to collagen I coated 96-well plate (Gibco, Cat. A1142803) with the InVitroGRO CP medium. All plates were incubated at 37° C. with 5% CO2 and 85% humidity.
At 20 hrs after plating, the medium was changed to PHH culture medium (Dulbecco's Modified Eagle Medium (DMEM)/F12 (1:1) (Gibco, Cat. 11320-033), 10% fetal bovine serum (Gibco Cat. 10099141), 100 U/mL penicillin, 100 μg/mL streptomycin (Gibco, Cat. 151401-122), […] (Invitrogen Cat. PHG0311L), 20 ng/mL dexamethasone (Sigma, Cat. D4902) and 250 ng/mL human recombinant insulin (Gibco, Cat. 12585-014)). And the cells were incubated at 37° C. with 5% CO2 and 85% humidity for 4 hrs. The medium was then changed to pre-warmed PHH culture medium containing 4% polyethylene glycol (PEG) MW8000 (Sigma, Cat. P1458-50 ML) and 1% DMSO (Sigma, Cat. D2650). 5.8×10^6 genomic equivalents of HBV were added into the medium.
At 24 hrs post-infection, the cells were gently washed with PBS and refreshed with PHH culture medium supplemented with 1% DMSO, and 0.25 mg/mL Matrix gel (Corning, Cat. 356237) at 200 μL per well. All plates were immediately placed in at 37° C. CO2 incubator.
24 hrs later, serial dilutions of compounds made with DMSO were further diluted with the same culture medium (PHH culture medium supplemented with 1% DMSO and 0.25 mg/mL Matrix gel as described above) before they were added to the cells to reach desired final compound concentrations and 1% DMSO concentration. The medium containing the compounds were refreshed every three days.
At 9 days post-compound treatment, extracellular HBsAg level were measured with Chemiluminescence Immuno Assay (CLIA) kit (Autobio, HBsAg Quantitative CLIA).
HBsAg IC50 was derived from the dose-response curve using 4 parameter logistic curve fit method. The compounds of formula (I) have HBsAg IC50<20 μM, particularly <1 μM.

For `N#Cc1c(NCC2(c3ccccc3)CCCC2)ncnc1-c1ccco1` [Example 30, 4-(2-furyl)-6-[(1-phenylcyclopentyl)methylamino]pyrimidine-5-carbonitrile], the IC50 amounted to 9.06 µM.

Take `COc1nc(NC(C)c2cccc(C(F)(F)F)c2)cc(-c2ccco2)n1` (centres unmarked) [Example 34, 6-(2-furyl)-2-methoxy-N-[1-[3-(trifluoromethyl)phenyl]ethyl]pyrimidin-4-amine]: it took 3.49 µM to reach half-maximal inhibition (IC50). Compared with the last compound, the IC50 is about 2.6-fold lower.

The compound `N#Cc1c(NCC2CCCCC2)nc(N)nc1-c1ccco1` [Example 10, 2-amino-4-(cyclohexylmethylamino)-6-(2-furyl)pyrimidine-5-carbonitrile] had an IC50 of 3.62 µM. This IC50 and that of the compound before are within 1.5-fold of each other.

Take `COCCNc1nc(NCc2cccc(C(F)(F)F)c2)c(C#N)c(-c2ccco2)n1` [Example 12, 4-(2-furyl)-2-(2-methoxyethylamino)-6-[[3-(trifluoromethyl)phenyl]methylamino]pyrimidine-5-carbonitrile]: 3.89 µM corresponded to half-maximal inhibition (IC50).

`N#Cc1c(NCc2ccccc2)ncnc1-c1ccco1` [Example 25, 4-(benzylamino)-6-(2-furyl)pyrimidine-5-carbonitrile] had an IC50 of 2.03 µM.

Compound `CCNc1nc(NC2(c3cccc(C(F)(F)F)c3)CC2)c(C(=O)O)c(-c2ccco2)n1` [Example 60, 2-(ethylamino)-4-(2-furyl)-6-[[1-[3-(trifluoromethyl)phenyl]cyclopropyl]amino]pyrimidine-5-carboxylic Acid] showed a concentration for half-maximal inhibition (IC50) of 6.5 µM.

In turn, `CCOC(=O)c1c(NCc2ccccc2Cl)ncnc1-c1ccco1` [Example 57, Ethyl 4-[(2-chlorophenyl)methylamino]-6-(2-furyl)pyrimidine-5-carboxylate] returned an IC50 of 4.26 µM.

`CC(C)(C)OC(=O)N1CCN(C(=O)c2c(NCc3cccc(C(F)(F)F)c3)nc(N)nc2-c2ccco2)CC1` [Example 56, tert-butyl4-[2-amino-4-(2-furyl)-6-[[3-(trifluoromethyl)phenyl]methylamino]pyrimidine-5-carbonyl]piperazine-1-carboxylate] came in with an IC50 of 9.66 µM.

`CC(Nc1nc(N)nc(-c2ccco2)c1C#N)c1ccccc1` (centres unmarked) [Example 1, 2-amino-4-(2-furyl)-6-(1-phenylethylamino)pyrimidine-5-carbonitrile] registered a half-maximal inhibitory concentration (IC50) of 5.93 µM. This IC50 is about 1.6-fold lower than that of the compound before.

Consider `CC(Nc1nc(N)nc(-c2ccco2)c1C#N)c1cccc(C(F)(F)F)c1` (centres unmarked) [Example 5, 2-amino-4-(2-furyl)-6-[1-[3-(trifluoromethyl)phenyl]ethylamino]pyrimidine-5-carbonitrile], for which the 50% inhibitory concentration (IC50) worked out at 0.47 µM.

For `N#Cc1c(NCC2CCC(F)(F)C2)nc(N)nc1-c1ccco1` (centres unmarked) [Example 8, 2-amino-4-[(3,3-difluorocyclopentyl)methylamino]-6-(2-furyl)pyrimidine-5-carbonitrile], inhibition was half-maximal at 10.2 µM (IC50).

The compound `CN(C)c1nc(NCC2CCCC2)c(C(=O)O)c(-c2ccco2)n1` [Example 43, 4-(cyclopentylmethylamino)-2-(dimethylamino)-6-(2-furyl)pyrimidine-5-carboxylic Acid] yielded a half-maximal inhibitory concentration (IC50) of 5.55 µM.

`Nc1nc(NCc2cccc(C(F)(F)F)c2)c(C(=O)N2CCOCC2)c(-c2ccco2)n1` [Example 55, [2-amino-4-(2-furyl)-6-[[3-(trifluoromethyl)phenyl]methylamino]pyrimidin-5-yl]-morpholino-methanone] gave a 50% inhibitory concentration (IC50) of 10.1 µM.

Regarding `CCCNc1nc(NCc2cccc(C(F)(F)F)c2)c(C#N)c(-c2ccco2)n1` [Example 15, 4-(2-furyl)-2-(propylamino)-6-[[3-(trifluoromethyl)phenyl]methylamino]pyrimidine-5-carbonitrile], inhibition was half-maximal at 3.01 µM (IC50).

In general, IC50 refers to the concentration needed to halve the response being measured. A low value points to higher potency.
